Earlier results, collected in US10035944B2, “Using synthetic acid compositions as alternatives to conventional acids in the oil and gas industry” (priority 2014, dated 2018).

Conditions: death in 2-3 minutes

Cl [Hydrogen chloride gas, Hydrogen chloride]
level at which death can occur: 1300-2000 ppm
